{
  "source": "the supplement of paper PMC10307832",
  "experiment_in_all_cases": "relative viability (nuclei count vs DMSO), 5 days (fraction); higher = more cells survive",
  "key": {"[1]": {"compound": "C1CNCCC1C2=CC(=NN2)C3=CC=NC=C3 + Nc1ncn([C@H]2C[C@H](O)[C@@H](CO)O2)c(=O)n1 [Decitabine] (partner 2 µM)", "how_it_was_run": "(§1)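 Nuclei were stained with Hoechst during a one-step fixation (final 0.05% Triton X-100, 1% formaldehyde, 1 ug/ml Hoechst) carried out 5 days after dosing, then counted on 4× images. The cells, lung cancer lines in 1536-well plates, had been dosed by pin tool the day after seeding with one drug alone or a fixed anchor-drug dose plus five library-drug doses (not always all listed) in √10 steps. Relative viability is the nuclei count in treated wells divided by that in vehicle wells, and each value is the median of duplicate plates.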"}, "[2]": {"compound": "C1CNCCC1C2=CC(=NN2)C3=CC=NC=C3 + Cc1nc(Nc2ncc(C(=O)Nc3c(C)cccc3Cl)s2)cc(N2CCN(CCO)CC2)n1 [Dasatinib] (partner 0.075 µM)", "how_it_was_run": "as §1"}, "[3]": {"compound": "O[C@H]1CC[C@H](Nc2ncc3nc(Nc4c(F)cc(F)cc4F)n([C@H]4CCOC4)c3n2)CC1 [Tanzisertib] + CS(=O)(=O)N1CCN(Cc2cc3nc(-c4cccc5[nH]ncc45)nc(N4CCOCC4)c3s2)CC1 [Pictilisib] (partner 1 µM)", "how_it_was_run": "as §1"}, "[4]": {"compound": "C[C@@H](N)c1ccc(C(=O)Nc2ccnc3[nH]ccc23)cc1 + CC1(C)CCC(c2ccc(Cl)cc2)=C(CN2CCN(c3ccc(C(=O)NS(=O)(=O)c4ccc(N[C@H](CCN5CCOCC5)CSc5ccccc5)c(S(=O)(=O)C(F)(F)F)c4)cc3)CC2)C1 [Navitoclax] (partner 0.5 µM)", "how_it_was_run": "as §1"}},
  "data": [
    {"cell line": "UMC-11", "values": [
      {"measurement": "relative viability", "setting": "[1]; first compound 0.08 µM", "value": 0.4},
      {"measurement": "relative viability", "setting": "[1]; first compound 0.8 µM", "value": 0.629},
      {"measurement": "relative viability", "setting": "[1]; first compound 2.53 µM", "value": 0.697},
      {"measurement": "relative viability", "setting": "[1]; first compound 8 µM", "value": 0.808},
      {"measurement": "relative viability", "setting": "[2]; first compound 0.08 µM", "value": 0.498},
      {"measurement": "relative viability", "setting": "[2]; first compound 0.8 µM", "value": 0.543},
      {"measurement": "relative viability", "setting": "[2]; first compound 2.53 µM", "value": 0.488},
      {"measurement": "relative viability", "setting": "[2]; first compound 8 µM", "value": 0.521},
      {"measurement": "relative viability", "setting": "[3]; first compound 0.08 µM", "value": 0.874},
      {"measurement": "relative viability", "setting": "[3]; first compound 0.253 µM", "value": 0.85},
      {"measurement": "relative viability", "setting": "[3]; first compound 0.8 µM", "value": 0.909},
      {"measurement": "relative viability", "setting": "[3]; first compound 2.53 µM", "value": 0.798},
      {"measurement": "relative viability", "setting": "[3]; first compound 8 µM", "value": 0.711},
      {"measurement": "relative viability", "setting": "[4]; first compound 0.04 µM", "value": 0.318},
      {"measurement": "relative viability", "setting": "[4]; first compound 0.1265 µM", "value": 0.323},
      {"measurement": "relative viability", "setting": "[4]; first compound 0.4 µM", "value": 0.332},
      {"measurement": "relative viability", "setting": "[4]; first compound 1.265 µM", "value": 0.27},
      {"measurement": "relative viability", "setting": "[4]; first compound 4 µM", "value": 0.211}
    ]}
  ]
}
